Measured values from patent publication US12594255B2, “Lipids with odd number of carbon atoms and their use as pharmaceutical composition or nutritional supplement” (SunRegen Healthcare AG, priority 2016, dated 2026).
Where two headings read alike, the source gives them in different places.

Columns and labels:
Type in all cases: cell-based
[1] = system: age-induced protein aggregates in Saccharomyces cerevisiae; assay: Age-induced protein aggregates (Hsp104-GFP foci) in old yeast cells; details: for proportion of cells with a Hsp104-GFP focus: vehicle only 58.7±10.6%
Protocol: FIG. 9a: Representative images of a young cell, or old cells untreated or treated with Herb B (10 μg/ml) or Compound C (30 μM). Upper panels are maximum projection of z-series stacks of cells stained with fluorescent brightener 28 and imaged in the DAPI channel to reveal bud scars. Lower panel are single focal planes images of the same cells that express Hsp104-GFP and imaged in the GFP channel. Arrow point at an Hsp104-GFP focus.
FIG. 9c: Percentage of cells with an Hsp104-GFP focus. Cells were imaged with the same illumination conditions. All old cells imaged were included (between 75 and 94 cells). All focal planes were examined Mean±SD. P values are adjusted p values from an ANOVA comparing to vehicle only.
FIG. 9d: Average fluorescence intensity of Hsp104-GFP in the cell as a proxy for Hsp104-GFP concentration. Mean±SD. P values are adjusted p values obtained from ANOVA comparing to vehicle only
To test an effect on the formation of age-induced Hsp104-GFP foci, old cells were obtained and cultivated in the presence of Compound C (1 μM, 10 μM and 30 μM). Herb B (10 μg/ml), ethanol (0.3%, vehicle only) or in the absence of any treatment. Untreated young cells were obtained through a simple exponential growth.
Age was determined by staining bud scars with fluorescent brightener 28. […] (FIG. 9b)

[2] = Cell viability of neurons pre-incubated 48 h with test item only (no AβO), MTT assay; details: C57BL6/J, mouse, mouse primary cortical neurons, 1 nM compound C only, 48 h pre-incubation
Protocol: (§1) Mouse primary cortical neurons were pre-incubated for 48 h with vehicle, 0.05 μM DHA (used as positive control) or different concentrations of Compound C. Then, cortical neurons were treated for 24 h with vehicle (FIG. 1 left) or 1 μM AβO (FIG. 2 right) and cell viability was determined using the MTT assay (n=3 determinations per condition, 1 independent experiment), Data are represented as % of vehicle control (Mean*SD).
as §1, with “of Herb B Extracts.” for “of Compound C.”, “(FIG. 10” for “(FIG. 1”, “(FIG. 11” for “(FIG. 2”, “control (Mean±SD).” for “control (Mean*SD).”
Cortical neurons from embryonic day 16-17 are prepared from C57BL6/J mouse fetuses. In brief, dissociated cortical cells were plated (50.000 cells/well) in 48-well plates pre-coated with 1.5 μg/mL polyornithine (Sigma). […] The AβO-induced neurotoxicity was evaluated using the MTT assay.
Cortical neurons from embryonic day 16-17 are prepared from C57BL6/J mouse fetuses. […] The AβO-induced neurotoxicity was evaluated using the MTT assay. […]

[3] = system: human iPSC-derived neurons challenged with Aβ1-42 oligomers (AβO); assay: AβO-induced neuronal death in human iPSC-derived neurons, NSE ELISA assay; details: 10000 nM; for viability at 10 µM: Homo sapiens, Neuron, read-out: cell viability
Protocol: iPSCs were treated at 0 h (T0) with vehicle or 1 μM AβO. Different concentrations of Compound C or 0.1 μM HNG (used as positive control) were added concomitantly to AβO at 0 h (T0), 3 h (T3) or 6 h (T6) after AβO. Then, were incubated for 24 h and cell viability was determined using the NSE ELISA assay (n=6 determinations per condition, 1 independent experiment), Data are represented as % of vehicle control (Mean±SD). […]
To determine whether compound C might rescue neuronal death in human iPSC-derived neurons challenged with Aβ1-42 oligomers (AβO). In this cellular model, AβO induce a dramatic neuronal death that could be monitored by the level of neuronal specific enolase (NSE) using a specific ELISA assay. Compound C will be added at different time points (concomitantly and after AMBO) with the aim to identify rescuing effects.
Cells (HIP-Neuronal progenitors, GlobalStem, Cat #GSC-4312, Lot #20010260) are plated in 96-well plates at a density of 60.000 cells per well and culture. Before experiments, cells are matured for five weeks and kept at 37° C. in a humidified 5% CO2 atmosphere.
Cells are incubated with vehicle or 1 μM AβO in the absence or presence of different concentrations (i.e. 10, 100, 1000 and 10000 nM) of Compound C added concomitantly to AβO (T0), 3 h after AβO (T3), or 6 h after AβO (T6). Cells are incubated for 24 h in a final volume of 100 μL per well. For positive control, cells are treated similarly in the presence of 0.1 μM HNG (i.e. S14G variant of humanin peptide). In addition, neuronal loss is monitored using the detection of neuronal specific enolase (NSE) by ELISA assay according to supplier's recommendations (CloneCloud, Cat #SEA537Hu). A total of three data points per experimental condition will be generated here. […]

Structure (SMILES): CCCCCCCCCCCCCCC(=O)OCC(COC(=O)CCCCCCCCCCCCCC)OC(=O)CCCCCCCCCCCCCC [Compound C, tripentadecanoin]
- proportion of cells with a Hsp104-GFP focus ([1]; 1 μM, not statistically significant): 46.2±4.8%
- proportion of cells with a Hsp104-GFP focus ([1]; 10 μM): 37.5±6.0%
- proportion of cells with a Hsp104-GFP focus ([1]; 30 μM): 34.3±13.7%
- intensity of Hsp104-GFP (increase in old vs young cells) ([1]; compound C 1, 10, 30 μM, herb B 10 μg/ml): reduced the extent of this increase
- viability at 48 h, 0.001 µM [2]: 117 ± 3.7%
- % of neuroprotection and anti-apoptotic effects ([3]; T0): 53.7%
- % of neuroprotection and anti-apoptotic effects ([3]; T3): 90.8%
- % of neuroprotection and anti-apoptotic effects ([3]; T6): 78.9%
- viability at 10 µM ([3]; T0): 76.7 ± 2.7%
- viability at 10 µM ([3]; T3): 94.2 ± 7.1%
- viability at 10 µM ([3]; T6): 88.8 ± 1.3%
